Columns and labels:
[1] = prediabetic women, clinical trial 2021; cited from earlier work
[2] = system: human lung epithelial cell line (A549); assay: LDH release after hydrogen peroxide and hypoxic injury in A549 cells; type: cell-based; settings: 100 micromolar H2O2, 18 hours at 37° C., 95% nitrogen and 5% carbon dioxide, treatment agents 10 micromolar in the media
Description: In order to model cytoprotective effects of the invention, a reductionist in vitro model was employed wherein a human lung epithelial cell line (A549) was exposed to severe oxidant and hypoxic stress. Cultured A549 cells were placed in 96 well plates, incubated in Dulbecco's Modified Eagle's Medium (DMEM), and allowed to grow to confluence over 72 hours. Cellular injury was created by the addition into the media of 100 micromolar hydrogen peroxide (H2O2), followed by incubation at 37° C. for 18 hours in an atmosphere of 95% nitrogen and 5% carbon dioxide, which maintained a pH in the incubation media of 7.4. Three experimental arms were evaluated, using quadruplicate replicates, as follows: a) media control, b) NMN, and c) NMN plus resveratrol and hydroxytyrosol. A control arm was examined that was not exposed to hydrogen peroxide. The treatment agents were added such that their final concentration in the media was 10 micromolar. lactate dehydrogenase (LDH) was assayed in the media after 18 hours using a commercial kit, based upon a colorimetric change quantified by visible spectrophotometry.

[3] = animals and humans, even at high doses; cited from earlier work
[4] = system: sirtuin-1; settings: 500 mg/day, healthy and slightly overweight subjects; cited from earlier work

## NC(=O)c1ccc[n+]([C@@H]2O[C@H](COP(=O)([O-])O)[C@@H](O)[C@H]2O)c1 [NMN, 3-carbamoyl-1-[5-O-(hydroxyphosphinato)-β-D-ribofuranosyl] pyridinium]
[1]
  muscular insulin sensitivity: improve muscular insulin sensitivity
[2]
  reduction in the elevation in LDH release produced by addition of hydrogen peroxide alone: 14%

## C[N+](C)(C)[C@@H](Cc1c[nH]c(=S)[nH]1)C(=O)[O-] [ergothioneine, (2S)-3-(2-sulfanylidene-2,3-dihydro-1H-imidazol-4-yl)-2-(trimethylazaniumyl)propanoate]
[3]
  toxicity or adverse effects associated with administration: no toxicity or adverse effects

## Oc1ccc(/C=C/c2cc(O)cc(O)c2)cc1 [resveratrol, 3,4′,5-trihydroxy-trans-stilbene]
[4]
  gene expression and serum concentration of sirtuin-1: higher gene expression and serum concentration of sirtuin-1
